Results as given in BindingDB's records for patent US9745328 (Janssen Pharmaceutica NV, 2017).

Biological target: T1, Arachidonate 5-lipoxygenase-activating protein (Homo sapiens, UniProt P20292)
T1 sequence (P20292 whole entry): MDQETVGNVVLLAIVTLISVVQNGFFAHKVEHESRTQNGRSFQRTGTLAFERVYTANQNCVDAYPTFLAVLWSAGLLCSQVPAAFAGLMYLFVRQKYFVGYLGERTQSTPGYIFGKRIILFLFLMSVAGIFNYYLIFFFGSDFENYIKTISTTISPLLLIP
Assay: Binding Assay
Experimental: The FLAP binding assay is performed in HTRF format (homogeneous time resolved fluorescence). FLAP-containing membranes (1 μg/well final for human) are incubated in the presence of the HTRF ligand. […] The reaction is allowed to proceed for two hours after which the plate is read on an Envision plate reader in HTRF mode. Data are expressed as a HTRF ratio. For human FLAP binding assays, data are analyzed with 3DX Explorer software. […] For analysis, data from multiple runs are averaged and each compound may be tested in 2 to 20 runs. Each run comprises two plates and each plate includes duplicates. Data from each plate is averaged and data are imported into 3DX. The data from multiple runs are aggregated as the average of duplicates of the calculated ratios in order to calculate Ki and IC50 values.

Ki: 41.1 nM
Compound: Nc1cnc(-c2ccc(-c3ccccc3-c3ccc(N)nn3)cc2F)cn1 [US9745328, Compound 863]
